The values below come from US12123031B2, “Regulation of CRISPR-associated rossman fold (CARF) domain containing proteins by oligoadenylates” (VILNIUS UNIVERSITY, priority 2017, dated 2024).

In one test the target is T1, StCsm6 (Streptococcus thermophilus, UniProt A0A0A7HIX6).
T1 construct: HSH (StrepII tag plus two 6xHis tags) (N); made in house; host or cells: E. coli DH10B (ara)
T1 sequence (A0A0A7HIX6 1-428): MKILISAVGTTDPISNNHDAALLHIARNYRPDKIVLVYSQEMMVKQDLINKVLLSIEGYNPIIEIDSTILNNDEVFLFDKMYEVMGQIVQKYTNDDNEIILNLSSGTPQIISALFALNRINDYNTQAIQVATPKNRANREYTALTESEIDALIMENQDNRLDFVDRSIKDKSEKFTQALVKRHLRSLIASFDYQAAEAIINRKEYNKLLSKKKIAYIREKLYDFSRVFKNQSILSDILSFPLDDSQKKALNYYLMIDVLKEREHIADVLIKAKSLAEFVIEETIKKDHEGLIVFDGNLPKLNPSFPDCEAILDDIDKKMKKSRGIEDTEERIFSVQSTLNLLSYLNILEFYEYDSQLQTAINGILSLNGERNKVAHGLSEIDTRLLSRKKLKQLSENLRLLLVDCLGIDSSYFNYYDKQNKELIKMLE
Put plainly: Csm6 nuclease assay, StCsm6. It is filed as biochemical. Conditions: ssRNA NS, 37° C. 30 min, 50 nM individual cyclic oligoadenylate.

The target in a further test is T2, StCsm6′ (Streptococcus thermophilus, UniProt A0A0A7HFE6).
T2 construct: HSH (StrepII tag plus two 6xHis tags) (N); made in house; host or cells: E. coli DH10B (ara)
T2 sequence (A0A0A7HFE6 whole entry): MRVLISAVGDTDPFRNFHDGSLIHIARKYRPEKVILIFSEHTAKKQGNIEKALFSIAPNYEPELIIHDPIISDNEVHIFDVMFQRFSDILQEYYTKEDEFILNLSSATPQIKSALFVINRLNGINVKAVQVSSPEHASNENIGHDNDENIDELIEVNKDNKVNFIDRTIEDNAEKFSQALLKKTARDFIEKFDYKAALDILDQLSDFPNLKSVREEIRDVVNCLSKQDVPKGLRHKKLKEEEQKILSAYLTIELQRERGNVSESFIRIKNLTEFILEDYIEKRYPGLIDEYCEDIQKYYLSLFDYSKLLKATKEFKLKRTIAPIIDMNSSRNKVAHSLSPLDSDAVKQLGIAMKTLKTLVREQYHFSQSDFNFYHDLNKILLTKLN
The test can be described thus: Csm6 nuclease assay, StCsm6′. Type of test: biochemical. Conditions: ssRNA NS, 37° C. 30 min, 50 nM individual cyclic oligoadenylate. As for the experimental part:
Csm6 nuclease assay. StCsm6, StCsm6′, and TtCsm6 nuclease assays were conducted in the Reaction buffer (33 mM Tris-acetate (pH 7.6 at 37° C.), 66 mM K-acetate, 0.1 mg/ml BSA) supplemented with 1 mM EDTA and containing 5 nM of 5′-radiolabeled and 5 nM of unlabeled RNA NS (unless stated otherwise; see all RNA substrates used in this study in Table 1) and 500 nM of cyclic oligoadenylate mixture or 0.5-500 nM of the HPLC purified cyclic oligoadenylate effectors or 5-500 nM linear oligoadenylate with various phosphorylation levels—linear oligoadenylate 5′-triphosphate (ChemGenes); non-phosphorylated, 3′P (Metabion) or 5′P containing linear oligoadenylates. 5′P-oligoadenylates were obtained by incubating 3.(3) μM of non-phosphorylated linear oligoadenylate with 0.5 U T4 polynucleotide kinase and 1 mM ATP in the Reaction buffer A at 37° C. for 40 min. […]
(FIG. 20A) Domain arrangement of StCsm6′. […] The elution profile of the StCsm6′ is presented with the calculated experimental molecular weight 108.1 kDa, corresponding to protein dimer. […]
Analysis of StCsm6 (FIG. 23A) and StCsm6′ (FIG. 23B) cleavage of ssRNA NS in the absence or presence of synthetic c(AMP)2 (c-di-AMP) (Sigma-Aldrich) or HPLC isolated c(AMP)3, c(AMP)4, c(AMP)5 (synthesized by StCsm from ATP) or c(AMP)6 (synthesized by StCsm from pp(pA)6 precursor). […] Samples were analyzed in denaturing PAAG, followed by phosphorimaging. […]

Take `Nc1ncnc2c1ncn2[C@@H]1O[C@@H]2COP(=O)(O)O[C@H]3[C@@H](O)[C@H](n4cnc5c(N)ncnc54)O[C@@H]3COP(=O)(O)O[C@H]2[C@H]1O` [c(AMP)2, c-di-AMP]: on StCsm6, the “stimulation of StCsm6 ribonuclease activity” value is given as “only c(AMP)6 stimulated”. The “stimulation of StCsm6′ ribonuclease activity” value on StCsm6′ is recorded as “only c(AMP)6 stimulated”.
